One may read the viability as a per cent measure of how many cells are alive, often set against a control.

Each structure is given as a SMILES string. Where two headings read alike, the source gives them in different places.

This note sets out measurements from US7662851B2, “Use of specific cyklolignans” (Axelar AB, priority 2001, dated 2010).

What all share (assay type): cell-based
For one experiment, the target named is IGF-1R (Homo sapiens, UniProt P08069). The experiment is described as follows: Tyrosine phosphorylation of IGF-1R in intact FM55 melanoma cells. Particulars: 0.05 μM, 1 h; for Level of phosphorylation in intact cells, substrate IGF-1R: FM55 cells, Experiment 3; for Level of IGF-1R phosphorylation in intact cells: FM55 melanoma cells, means of 3 experiments. Details: endogenous in cells. The method, then: (§1) Cells were cultured to subconfluency in 6-cm plates, and then fresh medium containing 10% FBS and the desired compounds were added for 1 h. The cells were then lyzed and subjected to immunoprecipitation using specific antibodies. Immunoprecipitates were resolved by sodium dodecyl sulphate polyacrylamide gel electrophoresis (SDS-PAGE) and transferred to nitro-cellulose membranes and incubated with anti-phosphotyrosine antibody. Antibodies to actin (in cell extract) or IGF-1R beta subunit were used as loading controls. After detection the films were scanned for quantification.
IGF-1R, sequence (P08069 31-1367): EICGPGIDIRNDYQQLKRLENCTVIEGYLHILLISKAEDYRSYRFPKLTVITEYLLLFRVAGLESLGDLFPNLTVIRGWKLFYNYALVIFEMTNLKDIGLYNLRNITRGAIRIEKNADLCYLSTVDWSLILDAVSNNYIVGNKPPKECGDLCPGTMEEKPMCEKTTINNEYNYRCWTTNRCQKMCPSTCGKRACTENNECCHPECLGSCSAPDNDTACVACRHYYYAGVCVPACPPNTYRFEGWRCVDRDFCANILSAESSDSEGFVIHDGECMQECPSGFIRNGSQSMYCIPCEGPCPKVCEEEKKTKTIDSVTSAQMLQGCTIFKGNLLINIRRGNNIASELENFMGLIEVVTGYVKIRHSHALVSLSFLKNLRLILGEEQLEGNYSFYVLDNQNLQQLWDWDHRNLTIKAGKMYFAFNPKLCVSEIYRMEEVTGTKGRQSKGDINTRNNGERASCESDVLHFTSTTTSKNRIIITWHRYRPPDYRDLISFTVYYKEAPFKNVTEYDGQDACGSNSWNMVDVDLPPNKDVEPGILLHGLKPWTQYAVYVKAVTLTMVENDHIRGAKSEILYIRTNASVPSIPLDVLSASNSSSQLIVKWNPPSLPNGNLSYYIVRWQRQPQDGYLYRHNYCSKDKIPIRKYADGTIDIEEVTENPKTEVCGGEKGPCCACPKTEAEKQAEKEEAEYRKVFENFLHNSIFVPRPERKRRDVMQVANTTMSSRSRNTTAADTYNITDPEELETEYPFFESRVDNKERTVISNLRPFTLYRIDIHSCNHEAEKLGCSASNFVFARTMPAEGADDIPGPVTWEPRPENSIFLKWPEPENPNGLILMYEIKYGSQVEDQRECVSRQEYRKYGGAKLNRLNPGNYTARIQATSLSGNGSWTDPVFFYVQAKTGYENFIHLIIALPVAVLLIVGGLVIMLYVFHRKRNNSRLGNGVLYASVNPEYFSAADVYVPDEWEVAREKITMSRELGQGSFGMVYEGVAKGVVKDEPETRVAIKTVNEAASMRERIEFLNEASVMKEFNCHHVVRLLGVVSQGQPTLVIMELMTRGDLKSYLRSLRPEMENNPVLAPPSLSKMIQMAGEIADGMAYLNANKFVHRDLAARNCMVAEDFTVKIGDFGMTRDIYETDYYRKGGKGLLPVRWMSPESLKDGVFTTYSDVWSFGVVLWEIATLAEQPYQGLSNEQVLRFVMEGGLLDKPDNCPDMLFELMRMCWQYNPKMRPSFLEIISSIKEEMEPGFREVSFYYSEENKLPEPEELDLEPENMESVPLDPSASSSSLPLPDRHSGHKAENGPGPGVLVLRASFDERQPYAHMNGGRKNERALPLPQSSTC
The isolated cells were then lyzed in 10 ml ice-cold PBSTDS containing protease inhibitors (Carlberg, M., et al., J Biol Chem 271:17453-17462, 1996). 50 μl protein A or G agarose was added in 1 ml sample and incubated for 15 min at 4° C. on an orbital shaker. After centrifugation for 10 min at 10,000 r/min at 4° C. the supernatant was saved. The protein content was determined by a dye-binding assay with a reagent purchased from Bio-Rad. Bovine serum albumin was used as a standard. 15 μl Protein G Plus agarose and 5 μl anti-IGF-1R were added. After a 3 h incubation at 4° C. on an orbital shaker the precipitate was collected by pulse centrifugation in a micro centrifuge at 14,000×g for 10 s. The supernatant was discarded and the pellet was washed 3 times with PBSTDS.
Protein samples were solved in a 2×-sample buffer containing Laemmli buffer and 0.5% […] and boiled for 5 min at 96° C. Samples were separated by SDS-PAGE with a 4% stacking gel and 7.5% separation gel. Molecular weight markers (Bio Rad, Sweden) were run simultaneously in all experiments.
Following SDS-PAGE the proteins were transferred overnight to nitro-cellulose membranes (Hybond, Amersham, UK) and then blocked for 1 h at room temperature in a solution of 4% skimmed milk powder and 0.02% Tween 20 in PBS, pH 7.5. Incubations with the primary antibodies were performed for 1 h at room temperature, followed by 3 washes with PBS with Tween and incubation with the second antibody for 1 h room temperature. After another 3 washes the membranes were incubated with Streptavidin-labelled horseradish peroxidase for 30 min and then detected using Amersham ECL system (Amersham, UK). The films were scanned by Fluor-S (BioRad).
FM55 melanoma cells were seeded in 6-cm dishes, at a concentration of 10,000 cells/cm^2 in Minimal Essential Medium supplemented with 10% fetal calf serum (FCS). When the cells reached a density of 65,000 cells/cm^2 in the dishes, they were treated for 1 h with 0.05 μM podophyllotoxin, deoxypodophyllotoxin, picropodophyllin, deoxypicropodophyllin, 4′-demethyl-7-(4,6-O-ethylidene-β-D-glucopyranosyl)epipodophyllotoxin (etoposide) and podophyllotoxin-4,6-O-benzylidene-β-D-glucopyranoside (pf-4,6-O). Etoposide and pf-4,6-O were also administered at 15 μM. The cells were then harvested for assay and quantification of IGF-1R phosphorylation as described in Experiment 1. The values shown in Table 1 represent means of 3 experiments.
(§2) FM55 melanoma cells were cultured in the same way as described in Experiment 1. When reaching a density of 65,000 cells/cm^2 in the dishes, they were treated for 1 h with 0 (control) and 0.05 μM of picropodophyllin and podophyllotoxin, respectively. The cells were then isolated and subjected to immunoprecipitation of the IGF-1R, fibroblast growth factor receptor (FGFR), platelet-derived growth factor receptor (PDGFR), epidermal growth factor receptor (EGFR), insulin receptor (IR) and insulin substrate-1 (IRS-1) using antibodies to respective molecules. IRS-1 is a substrate of IGF-1R, and therefore its phosphorylation is dependent on phosphorylated IGF-1R. Gelelectrophoresis, Western blotting and quantification of the different signals were performed as described above.

The test system of a further experiment is HaCaT cells. The experiment can be described thus: Cell viability of HaCaT cells (psoriasis model). The settings on record: Homo sapiens, 48 h, read-out: Cell viability. The procedure: Keratinocytes (HaCaT cells) were provided by and tested in collaboration with Professor Mona Bäckdahl, Department of Dermatology, Karolinska Hospital, Stockholm, Sweden. The HaCaT cell line is a spontaneously immortalized human keratinocyte cell line (Boukamp P, et al., J Cell Biol 106: 761-771, 1988), which is frequently used as an experimental model for psoriasis (Wraight, C. J., et al. Nat Biotechnol 18: 521-526, 2000.) HaCaT cells were cultured in Dulbecco's Modified Eagle's Medium containing 10% fetal bovine serum, glutamine, benzylpenicillin and streptomycin.
Cell proliferation kit II (Roche Inc.) is based on colorimetric change of the yellow tetrazolium salt XTT in orange formazan dye by the respiratory chain of viable cells (Roehm, N W, et al., J Immunol Methods 142:257-265, 1991). Cells seeded at a concentration of 5000/well in 100 μl medium in a 96-well plate were treated with different drugs in the given concentration. After 24 or 48 h the cells were incubated, according to the manufacturer's protocol, with XTT labelling mixture. After 4 h the formazan dye is quantified using a scanning multiwell spectrophotometer with a 495-nm filter. The absorbance is directly correlated with the number of viable cells. The standard absorbance curve was drawn by means of untreated cells seeded at a concentration of from 1000 to 10 000 cells/well with an increasing rate of 1000 cells/well. […]

Another experiment concerns the target T1, insulin receptor (IR) (Homo sapiens, UniProt P06213).
T1 construct: endogenous in cells; host or cells: FM55 melanoma cells
The experiment is described as follows: Tyrosine phosphorylation of IR in intact FM55 melanoma cells. The settings on record: 0.05 μM, 1 h. The procedure:
as §1, §2

T1 sequence (P06213 28-1382): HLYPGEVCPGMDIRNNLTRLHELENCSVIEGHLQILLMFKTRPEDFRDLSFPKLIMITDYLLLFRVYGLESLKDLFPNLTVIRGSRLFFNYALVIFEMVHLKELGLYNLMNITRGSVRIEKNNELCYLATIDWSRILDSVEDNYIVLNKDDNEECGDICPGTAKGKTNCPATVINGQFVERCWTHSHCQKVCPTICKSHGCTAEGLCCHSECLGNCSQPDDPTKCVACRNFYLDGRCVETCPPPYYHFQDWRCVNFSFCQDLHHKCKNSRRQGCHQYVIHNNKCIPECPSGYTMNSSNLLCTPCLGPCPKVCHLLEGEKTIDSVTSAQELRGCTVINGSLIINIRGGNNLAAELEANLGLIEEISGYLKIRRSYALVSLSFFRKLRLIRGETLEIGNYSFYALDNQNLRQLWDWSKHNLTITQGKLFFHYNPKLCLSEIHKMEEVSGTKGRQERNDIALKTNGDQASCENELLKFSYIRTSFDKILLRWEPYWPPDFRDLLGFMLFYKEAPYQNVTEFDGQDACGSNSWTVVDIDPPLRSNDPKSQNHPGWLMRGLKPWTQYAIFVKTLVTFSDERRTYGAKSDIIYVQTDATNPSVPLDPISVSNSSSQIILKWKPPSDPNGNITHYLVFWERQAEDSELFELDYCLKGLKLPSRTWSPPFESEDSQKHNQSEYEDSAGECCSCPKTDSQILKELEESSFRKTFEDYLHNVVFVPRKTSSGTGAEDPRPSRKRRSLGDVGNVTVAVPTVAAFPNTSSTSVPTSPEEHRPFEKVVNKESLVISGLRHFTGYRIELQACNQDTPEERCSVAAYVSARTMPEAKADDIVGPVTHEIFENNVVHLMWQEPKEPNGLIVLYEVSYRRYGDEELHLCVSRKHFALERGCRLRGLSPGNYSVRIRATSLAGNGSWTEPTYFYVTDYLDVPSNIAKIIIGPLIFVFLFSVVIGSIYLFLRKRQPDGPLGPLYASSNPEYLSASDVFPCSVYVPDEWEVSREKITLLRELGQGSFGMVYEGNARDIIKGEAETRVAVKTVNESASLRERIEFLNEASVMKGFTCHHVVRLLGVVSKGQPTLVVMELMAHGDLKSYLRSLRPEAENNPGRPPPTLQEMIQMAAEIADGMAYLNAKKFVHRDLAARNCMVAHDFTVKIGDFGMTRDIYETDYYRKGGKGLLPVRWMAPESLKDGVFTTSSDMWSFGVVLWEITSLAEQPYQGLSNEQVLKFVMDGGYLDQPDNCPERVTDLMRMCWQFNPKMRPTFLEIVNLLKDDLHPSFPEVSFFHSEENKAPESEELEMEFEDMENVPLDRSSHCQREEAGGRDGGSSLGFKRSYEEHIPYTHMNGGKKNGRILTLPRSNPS

In the case of `COc1cc([C@@H]2c3cc4c(cc3[C@H](O)[C@H]3COC(=O)[C@H]23)OCO4)cc(OC)c1OC` [Podophyllotoxin, podophyllotoxin], on IGF-1R, the “Level of phosphorylation in intact cells, substrate IGF-1R” value is recorded as 7 % OD and the “Level of IGF-1R phosphorylation in intact cells” value worked out at 5 % OD. For the same molecule, the viability at 0.05 µM with HaCaT cells (HaCaT) came out at 30%. For the same molecule, on insulin receptor (IR), the “Level of phosphorylation in intact cells, substrate IR” value came out at 101 % OD.
As for `COc1cc([C@@H]2c3cc4c(cc3[C@H](O)[C@H]3COC(=O)[C@@H]23)OCO4)cc(OC)c1OC` [Picropodophyllin, picropodophyllin], at IGF-1R, the “Level of phosphorylation in intact cells, substrate IGF-1R” value came out at 20 % OD and the “Level of IGF-1R phosphorylation in intact cells” value was 8 % OD. Further, the viability at 0.05 µM with HaCaT cells (HaCaT cells, 0.05 μM, control 100) is 35%. For the same molecule, the “Level of phosphorylation in intact cells, substrate IR” value on insulin receptor (IR) amounted to 100 % OD.
